Assay results as given in paper PMC5522529, “Mechanisms of Paradoxical Activation of AMPK by the Kinase Inhibitors SU6656 and Sorafenib” (Cell Chemical Biology, 2017).

What was measured:
AMPK = AMPK activation in HeLa cells transfected with GFP-LKB1 WT, FF or FFF mutants; type: cell-based, human; conditions: HeLa cells expressing GFP-LKB1 WT, not with GFP control
Method: Top: AMPK activity (mean ± SEM, n = 4); bottom: western blots showing phosphorylation of Thr172 on AMPK, and of ERK1/2, in cells treated with DMSO (control), SU6656 (100 μM), or PP2 (100 nM) (n = 2). (B) As (A), but in SYF cells. (C) HeLa cells were transfected with DNAs encoding GFP alone, or GFP fused to WT, Y261F/Y365F (FF), or Y36F/Y261F/Y365F (FFF) mutants of LKB1; cells were treated with increasing concentrations of SU6656 for 1 hr and AMPK activity determined (mean ± SEM, n = 4). See also Figure S1. (D) HEK293 cells were transfected with DNAs encoding FLAG-tagged AMPK-α2 with or without a Y436F mutation. Cells were incubated with DMSO (control), 100 μM SU6656, 10 mM phenformin, or 10 μM A23187 for 1 hr; AMPK complexes were immunoprecipitated using anti-FLAG antibody and assayed. The top panels show kinase activities (mean ± SD, n = 3); the bottom panels show blots from the same experiment (n = 2). In all panels, asterisks indicate significant differences from DMSO controls; in (D), there were no significant differences between the WT and Y463F mutant. **p < 0.01, ****p < 0.0001.
We next transiently transfected DNAs encoding GFP, or GFP-tagged wild-type (WT), Y261F/Y365F (FF), or Y36F/Y261F/Y365F (FFF) mutants of LKB1 into HeLa cells, which lack endogenous LKB1.

α2-KD A156T (AT) mutant = target: T1, α2-KD A156T (AT) mutant (Homo sapiens, UniProt P54646, A156T); experiment: Inhibition of phosphorylated α2 kinase domain, A156T (AT) mutant; type: biochemical
T1 construct: amplifying residues 1-310 with 5' BamH1 and 3' Xho1 sites; made in house; host or cells: bacteria

[1] = target: α2 kinase domain (α2-KD, residues 1–310) (Homo sapiens, UniProt P54646); experiment: biochemical
α2-KD = target: T2, α2-KD (Homo sapiens, UniProt P54646); experiment: Inactivation of α2-KD by PP2Cα; type: biochemical; conditions: 5 mM ATP, AMP 2 mM, SU6656 up to 10 μM
T2 construct: amplifying residues 1-310 with 5' BamH1 and 3' Xho1 sites; made in house; host or cells: bacteria
Method: Figure 5 SU6656 Promotes AMPK Activation by Binding to the Catalytic Site: Studies in Cell-Free Assays (A) Effect of increasing concentrations of SU6656 ± 1 mM AMP in the presence of 2 mM ATP on the activity of purified rat liver AMPK. (B) Effect of ATP concentration on kinase activity of α2-KD in the presence of increasing concentrations of SU6656. Results (mean, n = 2) were fitted to the equation Y= (Vmax × X)/(Km × (1 + I/Ki) + X), where Y is the activity, X is the ATP concentration, I is the concentration of SU6656, and Ki is the inhibitory constant for SU6656. The curves were generated using this equation with the best-fit values of Vmax, Km, and Ki (shared between all four curves) quoted in the main text. (C) Inhibition of phosphorylated α2-KD (WT or AT mutant) by SU6656. […] The reduced inhibition at 10 μM SU6656 may be due to the inhibitor coming out of solution, so those data were not used for curve fitting. (D and E) Effect of increasing concentrations of SU6656 on activity (D) and Thr172 phosphorylation (E) induced by LKB1 with unphosphorylated α2-KD (WT/AT mutant). Results in (D) are mean ± SEM (n = 3); and were fitted to same equation as Figure 4C. […] The complexes (which have low basal phosphorylation due to lack of LKB1 in HeLa cells) were incubated with or without a limiting amount of LKB1, AMP (200 μM) or SU6656 (3 μM) for 10 min and AMPK activity determined. […]

[2] = set-up: method as in Strumberg et al., 2007; conditions: human clinical trials; ref Strumberg et al., 2007; cited from earlier work

Sequence of α2 kinase domain (α2-KD, residues 1–310) (P54646 1-310): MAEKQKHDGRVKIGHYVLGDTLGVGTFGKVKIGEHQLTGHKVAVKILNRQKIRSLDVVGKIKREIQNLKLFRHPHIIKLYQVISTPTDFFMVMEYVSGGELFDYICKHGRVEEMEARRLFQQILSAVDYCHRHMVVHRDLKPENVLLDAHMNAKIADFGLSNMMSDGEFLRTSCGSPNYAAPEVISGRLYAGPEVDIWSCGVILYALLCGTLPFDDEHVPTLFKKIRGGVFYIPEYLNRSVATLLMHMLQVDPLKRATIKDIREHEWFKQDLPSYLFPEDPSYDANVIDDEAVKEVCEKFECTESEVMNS
T1 sequence (P54646 1-310 A156T): as the sequence (P54646 1-310) above, with A156T counted along it
T2 sequence (P54646 1-310): as the sequence (P54646 1-310) above

IC50 (α2-KD A156T (AT) mutant; AT mutant α2-KD phosphorylated using CaMKK2, read-out: IC50 for inhibition of catalytic activity) [nM] | fold less potent inhibition with AT mutant than WT (α2-KD A156T (AT) mutant; AT versus WT α2-KD) [fold] | IC50 [1] [nM] | Ki [1] [nM] | protection against inactivation by PP2Cα (α2-KD) | Structure (SMILES) | AMPK activation and Thr172 phosphorylation (AMPK) | peak plasma sorafenib [2] [µM]
1700 ± 300 | ~10 | 220 ± 20 | 170 | did not protect against inactivation | CN(C)S(=O)(=O)c1ccc2c(c1)/C(=C/c1cc3c([nH]1)CCCC3)C(=O)N2 [SU6656] | equally in cells expressing the WT, FF, or FFF mutants | 
 |  |  |  |  | CNC(=O)c1cc(Oc2ccc(NC(=O)Nc3ccc(Cl)c(C(F)(F)F)c3)cc2)ccn1 [sorafenib] |  | 6 to 20
